# Results: patent publication US9914730B2, “Azaquinazoline inhibitors of Atypical protein Kinase C” (Ignyta, Inc., priority 2012, dated 2018)
# pIC50: −log10 of the molar value.
# Molecular target: T1, full-length human PKCι (Homo sapiens, UniProt P41743)
# T1 construct: Recombinant, full-length human PKCι expressed in Sf21 insect cells is also commercially available; purchased; host or cells: Sf21 insect cells
# T1 sequence (P41743 1-596): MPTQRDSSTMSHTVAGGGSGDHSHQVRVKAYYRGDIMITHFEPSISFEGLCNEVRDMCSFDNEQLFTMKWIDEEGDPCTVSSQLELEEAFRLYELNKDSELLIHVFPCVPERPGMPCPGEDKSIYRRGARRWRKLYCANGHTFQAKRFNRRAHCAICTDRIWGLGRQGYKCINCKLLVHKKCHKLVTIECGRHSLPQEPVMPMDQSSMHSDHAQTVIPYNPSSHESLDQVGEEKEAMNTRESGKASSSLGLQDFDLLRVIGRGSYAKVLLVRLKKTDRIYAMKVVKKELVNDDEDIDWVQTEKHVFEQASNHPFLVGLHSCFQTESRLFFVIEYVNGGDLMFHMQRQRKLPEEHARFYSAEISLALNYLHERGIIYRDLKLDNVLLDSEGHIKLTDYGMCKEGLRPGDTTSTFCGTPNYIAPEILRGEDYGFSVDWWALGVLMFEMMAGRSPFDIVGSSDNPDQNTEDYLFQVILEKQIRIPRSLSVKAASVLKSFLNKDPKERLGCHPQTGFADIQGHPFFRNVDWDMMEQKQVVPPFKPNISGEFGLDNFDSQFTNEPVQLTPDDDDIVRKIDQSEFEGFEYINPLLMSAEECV
# Assay: PKCι IC50 IMAP assay, full-length PKCι at 150 μM ATP
# Type: biochemical
# Conditions: read-out: IC50 in IMAP assay against full length PKCi at 150 μM ATP
# How it was run: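 IC50 from IMAP FP (ex 485/em 530 nm) after 60 min room-temperature reaction in pH 7.5 tris buffer with 9 mM MgCl2 and 0.9 mM DTT. Enzyme: full-length Sf21-expressed PKCι (~15 pM); ATP 150 μM, five times KM^APP; FAM-labelled peptide 100 nM; DMSO 4%.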
compound,measurement,value
"CC1(Nc2nc(-c3ccnc(Nc4ncc(F)cc4F)c3)nc3cncc(C4CC4)c23)CCNCC1 [Example 2174, {5-Cyclopropyl-2-[2-(3,5-difluoro-pyridin-2-ylamino)-pyridin-4-yl]-pyrido[3,4-d]pyrimidin-4-yl}-(4-methyl-piperidin-4-yl)-amine]",pIC50,> 7.00
"Fc1ccc(Nc2cc(-c3nc(N4CCNCC4)c4c(Cl)cncc4n3)ccn2)c(F)c1 [Example 255, [4-(5-Chloro-4-piperazin-1-yl-pyrido[3,4-d]pyrimidin-2-yl)-pyridin-2-yl]-(2,4-difluoro-phenyl)-amine]",pIC50,6.00 to 7.00
"COc1cc(N2CCOCC2)ccc1Nc1cc(-c2nc(N3CCNCC3)c3c(OC)cncc3n2)ccn1 [Example 359, (2-Methoxy-4-morpholin-4-yl-phenyl)-[4-(5-methoxy-4-piperazin-1-yl-pyrido[3,4-d]pyrimidin-2-yl)-pyridin-2-yl]-amine]",pIC50,6.00 to 7.00
"CN(C)CCN(C)c1nc(-c2ccnc(Nc3c(F)cccc3F)c2)nc2cncc(C3CC3)c12 [Example 797, N-{5-Cyclopropyl-2-[2-(2,6-difluoro-phenylamino)-pyridin-4-yl]-pyrido[3,4-d]pyrimidin-4-yl}-N,N′,N′-trimethyl-ethane-1,2-diamine]",pIC50,6.00 to 7.00
"COc1cncc2nc(-c3ccnc(Nc4cnccn4)c3)nc(N3CCNCC3)c12 [Example 201, [4-(5-Methoxy-4-piperazin-1-yl-pyrido[3,4-d]pyrimidin-2-yl)-pyridin-2-yl]-pyrazin-2-yl-amine]",pIC50,> 7.00
"OC1CCN(c2nc(-c3ccncc3)nc3c(Cl)nccc23)CC1 [Example 75, 1-[8-chloro-2-(pyridin-4-yl)-pyrido[3,4-d]-pyrimidin-4-yl]-piperidin-4-ol]",pIC50,5.00 to 6.00
"CC(C)NC(=O)C1CCN(c2nc(-c3ccnc(NC4CCCCC4)c3)nc3cncc(C4CC4)c23)CC1 [Example 674, 1-[2-(2-Cyclohexylamino-pyridin-4-yl)-5-cyclopropyl-pyrido[3,4-d]pyrimidin-4-yl]-piperidine-4-carboxylicacid isopropylamide]",pIC50,5.00 to 6.00
"COc1cncc2nc(-c3ccnc(Nc4ccc5c(C)n(C)nc5c4)c3)nc(N3CCNCC3)c12 [Example 490, (2,3-Dimethyl-2H-indazol-6-yl)-[4-(5-methoxy-4-piperazin-1-yl-pyrido[3,4-d]pyrimidin-2-yl)-pyridin-2-yl]-amine]",pIC50,> 7.00
"c1cc(-c2nc(N3CCNCC3)c3c(C4CC4)cncc3n2)cc(Nc2ccc3nonc3c2)n1 [Example 2116, Benzo[1,2,5]oxadiazol-5-yl-[4-(5-cyclopropyl-4-piperazin-1-yl-pyrido[3,4-d]pyrimidin-2-yl)-pyridin-2-yl]-amine]",pIC50,> 7.00
"CN1CCN(c2cccc(Nc3cc(-c4nc(N5CCC(O)C(O)C5)c5c(C6CC6)cncc5n4)ccn3)c2)CC1 (racemic) [Example 678, (+/−)-(trans)-1-(5-Cyclopropyl-2-{2-[3-(4-methyl-piperazin-1-yl)-phenylamino]-pyridin-4-yl}-pyrido[3,4d]pyrimidin-4-yl)-piperidine-3,4-diol]",pIC50,> 7.00
"Fc1cnccc1-c1nc(N2CCNCC2)c2ccncc2n1 [Example 65, 1-[2-(3-fluoropyridin-4-yl)pyrido[3,4-d]-pyrimidin-4-yl]-piperazine]",pIC50,4.40 to 5.00
"NC(=O)Cc1cccc(Nc2cc(-c3nc(N[C@@H]4CCNC4)c4ccncc4n3)ccn2)c1 [Example 316, 2-(3-{4-[4-((R)-Pyrrolidin-3-ylamino)-pyrido[3,4-d]pyrimidin-2-yl]-pyridin-2-ylamino}-phenyl)-acetamide]",pIC50,6.00 to 7.00
"COc1cncc2nc(-c3ccnc(Nc4c(F)cccc4F)c3)nc(N3CCN[C@@H](CO)C3)c12 [Example 442, ((R)-4-{2-[2-(2,6-Difluoro-phenylamino)-pyridin-4-yl]-5-methoxy-pyrido[3,4-d]pyrimidin-4-yl}-piperazin-2-yl)-methanol]",pIC50,> 7.00
"CCc1cncc2nc(-c3ccncc3)nc(NC[C@@H](N)Cc3ccccc3)c12 [Example 137, N-[(2S)-2-amino-3-phenylpropyl]-5-ethyl-2-(pyridin-4-yl)pyrido[3,4-d]pyrimidin-4-amine]",pIC50,> 7.00
"Fc1ccc(F)c(Nc2cc(-c3nc(N4CCNCC4)c4c(Cl)cncc4n3)ccn2)c1F [Example 257, [4-(5-Chloro-4-piperazin-1-yl-pyrido[3,4-d]pyrimidin-2-yl)-pyridin-2-yl]-(2,3,6-trifluoro-phenyl)-amine]",pIC50,6.00 to 7.00
"CN1CCN(c2cccc(Nc3cc(-c4nc(N5C[C@H](O)[C@@H](O)C5)c5c(C6CC6)cncc5n4)ccn3)c2)CC1 [Example 793, (3S,4S)-1-(5-Cyclopropyl-2-{2-[3-(4-methyl-piperazin-1-yl)-phenylamino]-pyridin-4-yl}-pyrido[3,4-d]pyrimidin-4-yl)-pyrrolidine-3,4-diol]",pIC50,6.00 to 7.00
"(3S)-3-benzyl-1-[6- chloro-2-(pyridin-4- yl)pyrido[3,4-d]- pyrimidin-4- yl]piperazine [Example 14]",pIC50,6.00 to 7.00
"Clc1cnc(-c2cc[nH]n2)c2nc(-c3ccncc3)nc(N3CCNCC3)c12 [Example 141, 5-Chloro-4-piperazin-1-yl-8-(1H-pyrazol-3-yl)-2-pyridin-4-yl-pyrido[3,4d]pyrimidine]",pIC50,6.00 to 7.00
"c1ccc(Nc2cc(-c3nc(NC[C@@H]4CCCN4)c4c(C5CC5)cncc4n3)ccn2)cc1 [Example 697, [5-Cyclopropyl-2-(2-phenylamino-pyridin-4-yl)-pyrido[3,4-d]pyrimidin-4-yl]-(S)-1-pyrrolidin-2-ylmethyl-amine]",pIC50,6.00 to 7.00
"NC(=O)N1CCN(c2nc(-c3ccncc3)nc3cnccc23)CC1 [Example 56, 4-[2-(pyridin-4-yl)-pyrido[3,4-d]-pyrimidin-4-yl]-piperazine-1-carboxamide]",pIC50,4.40 to 5.00
"c1cc(Nc2cc(-c3nc(N4CCCC4)c4c(C5CC5)cncc4n3)ccn2)cc(N2CCNCC2)c1 [Example 766, [4-(5-Cyclopropyl-4-pyrrolidin-1-yl-pyrido[3,4-d]pyrimidin-2-yl)-pyridin-2-yl]-(3-piperazin-1-yl-phenyl)-amine]",pIC50,6.00 to 7.00
"COCCN1CCN(c2nc(-c3ccnc(NC(=O)C4CC4)c3)nc3cncc(C4CC4)c23)CC1 [Example 666, Cyclopropane-carboxylic acid (4-{5-cyclopropyl-4-[4-(2-methoxy-ethyl)-piperazin-1-yl]-pyrido[3,4-d]pyrimidin-2-yl}-pyridin-2-yl)-amide]",pIC50,5.00 to 6.00
"COc1cncc2nc(-c3ccnc(NC(C)=O)c3)nc(N3CCC(O)CC3)c12 [Example 215, N-{4-[4-(4-Hydroxy-piperidin-1-yl)-5-methoxy-pyrido[3,4-d]pyrimidin-2-yl]-pyridin-2-yl}-acetamide]",pIC50,6.00 to 7.00
"COc1cncc2nc(-c3ccncc3)nc(N3CC[C@@H](N)C3)c12 [Example 45, (3R)-1-[5-methoxy-2-(pyridin-4-yl)-pyrido[3,4-d]-pyrimidin-4-yl]-pyrrolidin-3-amine]",pIC50,5.00 to 6.00
"CC1(C)CN(c2nc(-c3ccnc(Nc4nc(F)ccc4F)c3)nc3cncc(C4CC4)c23)CCN1 [Example 838, {4-[5-Cyclopropyl-4-(3,3-dimethyl-piperazin-1-yl)-pyrido[3,4-d]pyrimidin-2-yl]-pyridin-2-yl}-(3,6-difluoro-pyridin-2-yl)-amine]",pIC50,> 7.00
"COc1cncc2nc(-c3ccnc(Nc4ccc(N(C)C)cc4)c3)nc(N[C@@H]3CCNC3)c12 [Example 226, N-{4-[5-Methoxy-4-((R)-pyrrolidin-3-ylamino)-pyrido[3,4-d]pyrimidin-2-yl]-pyridin-2-yl}-N′,N′-dimethyl-benzene-1,4-diamine]",pIC50,> 7.00
"COc1cncc2nc(-c3ccnc(Nc4cc(F)c(F)cc4F)c3)nc(N3CCNCC3)c12 [Example 455, [4-(5-Methoxy-4-piperazin-1-yl-pyrido[3,4-d]pyrimidin-2-yl)-pyridin-2-yl]-(2,4,5-trifluoro-phenyl)-amine]",pIC50,6.00 to 7.00
"COc1cncc2nc(-c3ccnc(NC(=O)Cc4cccnc4)c3)nc(N[C@@H]3CCNC3)c12 [Example 396, N-{4-[5-Methoxy-4-((R)-pyrrolidin-3-ylamino)-pyrido[3,4-d]pyrimidin-2-yl]-pyridin-2-yl}-2-pyridin-3-yl-acetamide]",pIC50,> 7.00
"Fc1cnc(Nc2cc(-c3nc(NC4CCOCC4)c4c(C5CC5)cncc4n3)ccn2)c(F)c1 [Example 2168, {5-Cyclopropyl-2-[2-(3,5-difluoro-pyridin-2-ylamino)-pyridin-4-yl]-pyrido[3,4-d]pyrimidin-4-yl}-(tetrahydro-pyran-4-yl)-amine]",pIC50,4.40 to 5.00
"COc1cncc2nc(-c3ccnc(NC(=O)C(C)(C)C)c3)nc(N3CCNCC3)c12 [Example 217, N-[4-(5-Methoxy-4-piperazin-1-yl-pyrido[3,4-d]pyrimidin-2-yl)-pyridin-2-yl]-2,2-dimethyl-propionamide]",pIC50,6.00 to 7.00
"N#Cc1ccc(Nc2cc(-c3nc(N4CCNCC4)c4c(C5CC5)cncc4n3)ccn2)cc1F [Example 631, 4-[4-(5-Cyclopropyl-4-piperazin-1-yl-pyrido[3,4-d]pyrimidin-2-yl)-pyridin-2-ylamino]-2-fluoro-benzonitrile]",pIC50,6.00 to 7.00
